# Measurements as given in patent publication US9403798B2, “Triazinone compound and T-type calcium channel inhibitor” (NISSAN CHEMICAL INDUSTRIES, LTD., priority 2012, dated 2016).
# Target: T1, Human T-type calcium channel (Cav 3.2) (Homo sapiens, UniProt O95180)
# T1 construct: Edward Perez-Reyes, University of Virginia, USA; host or cells: HEK293
# Assay: Calcium Influx Inhibition Assay
# Format: cell-based
# Conditions: Human T-type calcium channel (Cav 3.2) expressing HEK293 cells, FLIPR Calcium 4 fluorescence
# Method: 1. Calcium Influx Inhibition Assay
# Human T-type calcium channel (Cav 3.2) expressing HEK293 cells were obtained from Prof. Edward Perez-Reyes, University of Virginia, USA. The calcium-sensitive fluorescent dye used was FLIPR Calcium 4 Assay Kit (Molecular Devices). To a black 96-well plate with a clear bottom coated with type I collagen, the human T-type calcium channel (Cav 3.2) expressing HEK293 cells were seeded and cultured overnight, and the culture medium was removed. A solution of the calcium-sensitive fluorescent dye was added, and the plate was incubated at 37° C. in an atmosphere of 5% carbon dioxide for 30 minutes. To the plate, a diluted solution of a compound was added, and the whole was further incubated at 37° C. in an atmosphere of 5% carbon dioxide for 30 minutes. While fluorescence was continuously analyzed from the bottom with a FlexStation 3 (Molecular Devices), a calcium solution was added. […] From the rise in the fluorescence from the base line, the inhibition percentage was calculated. The logarithms of compound concentrations were plotted with respect to the inhibition activities to give an IC50 value.
# T1 sequence (O95180 whole entry): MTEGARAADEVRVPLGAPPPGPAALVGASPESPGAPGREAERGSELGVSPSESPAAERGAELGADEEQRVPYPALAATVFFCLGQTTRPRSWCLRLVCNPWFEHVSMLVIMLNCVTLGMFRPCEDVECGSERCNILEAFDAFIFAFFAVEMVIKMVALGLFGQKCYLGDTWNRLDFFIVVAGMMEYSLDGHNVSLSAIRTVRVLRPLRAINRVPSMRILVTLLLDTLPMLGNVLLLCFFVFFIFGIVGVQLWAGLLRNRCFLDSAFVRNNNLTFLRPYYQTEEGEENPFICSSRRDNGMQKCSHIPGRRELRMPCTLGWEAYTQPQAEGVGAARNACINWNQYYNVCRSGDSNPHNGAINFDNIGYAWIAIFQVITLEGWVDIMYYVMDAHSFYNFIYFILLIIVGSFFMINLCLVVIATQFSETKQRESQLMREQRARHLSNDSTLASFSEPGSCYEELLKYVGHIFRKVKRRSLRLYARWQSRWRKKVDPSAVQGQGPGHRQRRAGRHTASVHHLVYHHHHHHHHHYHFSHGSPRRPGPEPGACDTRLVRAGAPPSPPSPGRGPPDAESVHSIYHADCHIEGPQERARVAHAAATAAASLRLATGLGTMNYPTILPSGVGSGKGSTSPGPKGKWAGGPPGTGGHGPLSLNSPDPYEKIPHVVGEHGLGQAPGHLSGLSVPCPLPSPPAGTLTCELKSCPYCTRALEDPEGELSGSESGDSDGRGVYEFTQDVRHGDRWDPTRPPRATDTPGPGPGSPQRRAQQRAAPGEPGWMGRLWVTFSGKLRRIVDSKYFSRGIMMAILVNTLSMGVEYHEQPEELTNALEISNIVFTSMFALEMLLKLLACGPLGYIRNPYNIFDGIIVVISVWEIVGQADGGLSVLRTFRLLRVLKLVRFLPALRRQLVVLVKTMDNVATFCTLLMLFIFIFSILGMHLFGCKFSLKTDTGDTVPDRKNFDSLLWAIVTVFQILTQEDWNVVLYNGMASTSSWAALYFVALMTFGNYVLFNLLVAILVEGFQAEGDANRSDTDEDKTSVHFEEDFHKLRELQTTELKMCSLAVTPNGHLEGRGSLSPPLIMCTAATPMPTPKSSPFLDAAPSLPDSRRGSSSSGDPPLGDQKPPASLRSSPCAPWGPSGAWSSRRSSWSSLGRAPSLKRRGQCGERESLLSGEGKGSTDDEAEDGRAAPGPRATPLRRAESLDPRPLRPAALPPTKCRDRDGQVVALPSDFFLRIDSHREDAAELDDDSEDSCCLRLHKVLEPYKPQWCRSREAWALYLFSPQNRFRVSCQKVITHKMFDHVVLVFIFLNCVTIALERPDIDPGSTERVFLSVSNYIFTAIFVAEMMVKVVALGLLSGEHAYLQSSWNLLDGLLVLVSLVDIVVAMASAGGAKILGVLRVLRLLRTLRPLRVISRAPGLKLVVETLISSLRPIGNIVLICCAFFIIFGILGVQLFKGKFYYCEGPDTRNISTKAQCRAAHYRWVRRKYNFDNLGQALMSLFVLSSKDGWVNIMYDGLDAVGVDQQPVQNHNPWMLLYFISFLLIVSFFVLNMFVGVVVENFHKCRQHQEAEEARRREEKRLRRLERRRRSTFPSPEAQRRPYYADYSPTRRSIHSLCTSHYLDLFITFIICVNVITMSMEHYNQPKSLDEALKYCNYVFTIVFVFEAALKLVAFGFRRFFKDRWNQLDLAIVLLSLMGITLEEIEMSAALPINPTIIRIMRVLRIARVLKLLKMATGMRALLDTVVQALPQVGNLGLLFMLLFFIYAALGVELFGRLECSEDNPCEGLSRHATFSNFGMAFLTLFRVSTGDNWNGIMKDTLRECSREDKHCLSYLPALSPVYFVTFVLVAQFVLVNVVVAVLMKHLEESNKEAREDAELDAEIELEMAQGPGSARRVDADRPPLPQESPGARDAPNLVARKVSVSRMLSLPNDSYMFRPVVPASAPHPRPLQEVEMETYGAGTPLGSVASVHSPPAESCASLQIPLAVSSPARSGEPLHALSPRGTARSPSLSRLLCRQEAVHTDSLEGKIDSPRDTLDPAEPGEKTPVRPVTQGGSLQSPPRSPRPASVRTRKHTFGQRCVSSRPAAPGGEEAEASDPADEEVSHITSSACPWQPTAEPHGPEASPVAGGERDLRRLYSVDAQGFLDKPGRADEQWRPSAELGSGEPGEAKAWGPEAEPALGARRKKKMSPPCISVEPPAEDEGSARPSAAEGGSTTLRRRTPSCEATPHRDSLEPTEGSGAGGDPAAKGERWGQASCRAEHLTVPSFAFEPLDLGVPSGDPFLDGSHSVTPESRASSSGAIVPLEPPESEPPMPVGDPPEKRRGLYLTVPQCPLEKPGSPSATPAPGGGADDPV
row,Structure (SMILES),IC50 [nM]
1,O=c1nc(N[C@@H]2CCO[C@H](c3ccc(F)cc3)C2)ncn1Cc1ccc(C(F)(F)F)s1 (racemic) [compound 307],270
2,O=c1nc(N[C@@H]2CO[C@H](c3ccc(F)cc3)C2)ncn1Cc1ccc(C(F)(F)F)s1 (racemic) [compound 309],520
3,"O=c1nc(NCC2CC2c2ccc(F)cc2)ncn1Cc1ccc(C(F)(F)F)s1 (single isomer, unassigned) [compound 310]",170
4,O=c1nc(N2CCN(c3ccc(F)cc3)CC2)nc(CO)n1Cc1ccc(C(F)(F)F)s1 [458b],53
5,O=c1nc(N2CCC(c3ccc(F)cc3)C(F)(F)C2)ncn1Cc1ccc(Cl)cc1 (stereo not shown) [466b],570
6,O=c1nc(N2CCN(c3ccc(F)cc3)CC2)ncn1Cc1ccc(Cl)cc1 [compound 1],170
7,O=c1nc(N2CCN(c3ccc(F)cc3)CC2)ncn1Cc1ccc(C(F)(F)F)cc1 [compound 3],100
8,CC(C)(C)c1ccc(Cn2cnc(N3CCN(c4ccc(F)cc4)CC3)nc2=O)cc1 [compound 5],56
9,O=c1nc(N2CCN(c3ccc(F)cc3)CC2)ncn1Cc1cccc(C(F)(F)F)c1 [compound 8],140
10,CC(C)(C)c1cc(Cn2cnc(N3CCN(c4ccc(F)cc4)CC3)nc2=O)[nH]n1 [compound 15],280
11,O=c1cc(C(F)(F)F)ccn1Cn1cnc(N2CCN(c3ccc(F)cc3)CC2)nc1=O [compound 16],580
12,O=c1nc(N2CCN(c3ccc(F)cc3)CC2)ncn1Cc1ccc(C(F)(F)F)o1 [compound 21],61
13,O=c1nc(N2CCN(c3ccc(F)cc3)CC2)ncn1Cn1ccc(C2CCCCC2)n1 [compound 27],150
14,O=c1nc(N2CCN(c3ccc(F)cc3)CC2)ncn1Cc1csc(C(F)(F)F)n1 [compound 29],320
15,COc1nc(N2CCN(c3ccc(F)cc3)CC2)nc(=O)n1Cc1ccc(Cl)cc1 [compound 31],230
16,CCOC(=O)c1cc(C(C)(C)C)n(Cn2cnc(N3CCN(c4ccc(F)cc4)CC3)nc2=O)n1 [compound 34],520
17,O=c1nc(N2CCN(c3ccc(Cl)cc3)CC2)ncn1Cn1ccc(C(F)(F)F)n1 [compound 38],75
18,Cc1cccc(N2CCN(c3ncn(Cn4ccc(C(F)(F)F)n4)c(=O)n3)CC2)c1 [compound 39],210
19,O=c1nc(N2CCN(c3ccc(SC(F)(F)F)cc3)CC2)ncn1Cn1ccc(C(F)(F)F)n1 [compound 43],440
20,N#Cc1ccc(N2CCN(c3ncn(Cn4ccc(C(F)(F)F)n4)c(=O)n3)CC2)cc1 [compound 49],860

row,Structure (SMILES),IC50 [nM]
1,O=c1nc(N2CCN(c3cc(F)c(F)c(F)c3)CC2)ncn1Cn1ccc(C(F)(F)F)n1 [compound 58],170
2,Cc1ccccc1N1CCN(c2ncn(Cn3ccc(C(F)(F)F)n3)c(=O)n2)CC1 [compound 59],800
3,O=c1nc(N2CCN(c3ccc(Cl)cc3F)CC2)ncn1Cn1ccc(C(F)(F)F)n1 [compound 60],420
4,CCCCOc1nc(N2CCN(c3ccc(F)cc3)CC2)nc(=O)n1Cc1ccc(Cl)cc1 [compound 65],610
5,COc1nc(N2CCN(c3ccc(F)cc3)CC2)nc(=O)n1Cc1ccc(OCc2ccc(Cl)cc2)cc1 [compound 66],88
6,O=c1nc(N[C@@H]2CCCN(c3ccc(F)cc3)C2)ncn1Cc1ccc(Cl)cc1 [compound 82],120
7,O=c1nc(NC2CCC(c3ccc(F)cc3)C2)ncn1Cc1ccc(Cl)cc1 (stereo not shown) [compound 85],57
8,C[C@@H]1CN(c2ccc(F)cc2)CCN1c1ncn(Cc2ccc(Cl)cc2)c(=O)n1 [compound 96],110
9,O=c1nc(N2CC=C(c3ccc(F)cc3)C(F)C2)ncn1Cc1ccc(Cl)cc1 (stereo not shown) [compound 107],76
10,O=c1nc(N2CCC(c3ccc(F)cc3)CC2)ncn1Cc1ccc(Cl)cc1 [compound 114],130
11,O=c1nc(NC[C@H]2CCCN2c2ccc(F)cc2)ncn1Cc1ccc(Cl)cc1 [compound 129],60
12,O=c1nc(Nc2nc(-c3ccc(F)c(F)c3)cs2)ncn1Cc1ccc(Cl)cc1 [compound 130],77
13,O=c1nc(Nc2ccn(-c3ccc(F)cc3)c2)ncn1Cc1ccc(Cl)cc1 [compound 131],200
14,CC1CC(F)(c2ccc(F)cc2)CCN1c1ncn(Cc2ccc(Cl)cc2)c(=O)n1 (stereo not shown) [compound 134],320
15,CCCCCCOc1ccc(Cn2cnc(N3CCN(c4ccc(F)cc4)CC3)nc2=O)cc1 [compound 140],55
16,O=c1nc(N2CCN(c3ccc(F)cc3)CC2)ncn1Cc1ccc(OCC(F)(F)F)nc1 [compound 144],96
17,O=c1nc(N2CC=C(c3ccc(F)cc3)CC2)ncn1Cc1ccc(OCC(F)(F)F)nn1 [compound 162],600
18,O=c1nc(N2CC=C(c3ccc(F)cc3)CC2)ncn1Cc1ccc2c(c1)CCCO2 [compound 178],60
19,O=c1nc(N2CC=C(c3ccc(F)cc3)CC2)ncn1Cc1ccc2c(c1)OCO2 [compound 182],100

# Now those with a lower IC50, led by results:
row,IC50 [nM],Structure (SMILES)
1,51,Cc1cc(Cn2cnc(N3CCN(c4ccc(F)cc4)CC3)nc2=O)sc1Br [compound 153]
2,50,O=c1nc(N2CCN(c3ccc(F)cc3)CC2)ncn1Cc1cc2cc(Cl)ccc2o1 [compound 18]
3,47,O=c1nc(N[C@@H]2CCN(c3ccc(F)cc3)C2)ncn1Cc1ccc(Cl)cc1 [compound 92]
4,47,CC(c1ccc(C(F)(F)F)s1)n1cnc(N2CC=C(c3ccc(F)cc3)C(O)C2)nc1=O (stereo not shown) [compound 202]
5,43,O=c1nc(N2CC=C(c3ccc(F)cc3)CC2)ncn1Cc1ccc2oc(C(F)(F)F)cc2c1 [compound 184]
6,42,O=c1nc(N2CC=C(c3ccc(F)cc3)C(O)C2)ncn1Cn1ccc(C(F)(F)F)n1 (stereo not shown) [compound 188]
7,41,CC(C)(C)c1ccc(Cn2cnc(N3CC=C(c4ccc(F)cc4)CC3)nc2=O)cc1 [compound 183]
8,30,O=c1nc(NC2CCC3(c4ccc(F)cc4)CC23)ncn1Cc1ccc(Cl)cc1 (stereo not shown) [compound 127]
9,25,O=c1nc(N2CCN(c3ccc(F)cc3)CC2)ncn1Cc1ccc(C(F)(F)F)s1 [compound 25]
10,24,O=c1nc(N2CC=C(c3ccc(Cl)cc3)CC2)ncn1Cc1ccc(C(F)(F)F)s1 [compound 71]
11,20,O=c1nc(N2CC=C(c3ccc(F)cc3)C(O)C2)ncn1Cc1ccc(C2CCCO2)s1 (stereo not shown) [compound 196]
12,19,O=c1nc(N2CCN(c3ccc(F)cc3)CC2)ncn1Cc1ccc(OC(F)(F)F)cc1 [compound 6]
13,19,O=c1nc(N2CC=C(c3ccccc3)CC2)ncn1Cc1ccc(C(F)(F)F)s1 [compound 70]
14,19,O=c1nc(N2CC=C(c3ccc(F)cc3)C(O)C2)ncn1Cc1ccc(Cl)cc1 (stereo not shown) [compound 90]
15,12,O=c1nc(N2CC=C(c3ccc(F)cc3)C(O)C2)ncn1Cc1ccc(OS(=O)(=O)C(F)(F)F)nc1 (stereo not shown) [compound 189]
16,9.9,O=c1nc(N2CC=C(c3ccc(F)cc3)C(O)C2)ncn1Cn1ccc(C(F)(F)C(F)(F)F)n1 (stereo not shown) [compound 194]
17,5.7,O=c1nc(N2CC=C(c3ccc(F)cc3)C(O)C2)ncn1Cc1cc2c(s1)CCCC2 (stereo not shown) [compound 201]
18,3.6,O=c1nc(N2CC=C(c3ccc(F)cc3)C(O)C2)ncn1Cc1ccc2c(c1)CC(C(F)(F)F)O2 (stereo not shown) [compound 195]
19,3.3,O=c1nc(N2CC=C(c3ccc(F)cc3)C(O)C2)ncn1Cc1ccc(C(F)(F)F)s1 (stereo not shown) [compound 190]
